# Measured values as given in patent US8163939B2, “Ascorbic acid derivative or salt thereof, production method thereof, and cosmetic” (Seikwa Kasei Company, Limited, priority 2007, dated 2012).
# What was measured:
# [1] = system: B16 melanoma 4A5 cell; experiment: Whitening test: theophylline-induced melanine production in B16 melanoma 4A5 cells; format: cell-based, mouse; conditions: sample at a concentration of 100 μM or less; theophylline-induced melanine production; 3 days culture; N=4
# Method in brief: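 Murine B16 4A5 cells were grown 24 h, then cultured 3 days in D-MEM with 10% FBS, 0.2 mM theophylline and sample. Melanin was dissolved in 2N NaOH at 60° C for 15 min, read at 450 nm against a synthetic-melanin standard and normalised to BCA protein. Suppression % = [1−(A−B)/(C−B)]×100 versus normal and control groups, with samples at ≤100 μM, N=4.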
# [2] = Stability Test 1: 2% aqueous solution, pH7, room temperature, 4 weeks (residual rate, odor, coloration); format: physicochemical
# Procedure: (§1) Aqueous solutions (2%) of various test samples were adjusted to pH7 with a dilute sodium hydroxide aqueous solution, and charged into 50 mL screw tubes, and the tubes were sealed and stored at room temperature for 4 weeks. Thereafter, HPLC measurement were performed (using liquid chromatography manufactured by Tosoh Corp.) and the residual rate was obtained based on the peak area. The residual rate, odor(odor change) and degree of coloration were evaluated based on the following methods and standards, and the results are shown in Table 41.
# ◯: 80% or more and less than 90%
# Δ: 60% or more and less than 80%
# X: 20% or more and less than 60%
# It was evaluated according to the following criterion by 10 panelists.
# Based on the evaluation results, classification was conducted as shown below.
# ◯: total point of 10 panelists is 25 or more
# Δ: total point of 10 panelists is 16 to 24
# X: total point of 10 panelists is 15 or less
# 3: almost no change as compared with that immediately after preparation
# 2: coloration is observed as compared with that immediately after preparation
# 1: intense coloration is observed as compared with that immediately after preparation
# [3] = Stability Test 2: 2% aqueous solution, pH7, 50° C., 4 weeks (residual rate, odor, coloration); format: physicochemical
# Procedure: as §1
# The same test as in Test Example 2 was carried out excepting that the sample was stored at 50° C. for 4 weeks instead of storing at room temperature for 4 weeks.
# [4] = Moisturizing test: moisturizing effect by water retention force; format: physicochemical; conditions: for moisturizing effect (in words): conclusion from Table 43, compared with ascorbic acid
# Procedure: A sample shown later was dried, and the dried sample was spread in an amount of about 0.4 g (this weight is represented by W0) on the bottom of a weighing bottle (diameter: 3.6 cm, height excluding lid: 1.8 cm) so as to give uniform thickness. The sample contained in the weighing bottle was allowed to stand still in a constant humidity and constant temperature vessel (ENVIROS KCL-1000, TOKYO RIKAKIKAI CO, LTD) under environments of 25° C. and 65% RH. The weight was measured periodically, waiting until sufficient moisture absorption to attain equilibrium of weight increase (about 48 hours). Thereafter, the sample was transferred to under environments of 25° C. and 20% RH (in sealed vessel containing a saturated CH3COOK aqueous solution filled in the bottom part). From the weight after 24 hours (this weight is represented by W1), the amount of retained water per 1 g of the dried sample was calculated according to the following formula. (W1−W0)/W0
# From the water amount thus calculated, the moisturizing effect was judged based on the following judging criterion, and the results are shown in Table 43.
# Three compounds: 2,3-di-O-glyceryl ascorbic acid, 2,3-di-O-phenylglyceryl ascorbic acid, and glycerin, and
# Six compounds: ascorbic acid, ascorbic acid glucoside, 2-O-glyceryl ascorbic acid, 3-O-glyceryl ascorbic acid, 3-O-butylglyceryl ascorbic acid and 3-O-octylglyceryl ascorbic acid, which were adjusted to pH7 with a dilute sodium hydroxide aqueous solution and concentrated.
# ◯: 25 mg or more and less than 40 mg
# Δ: 10 mg or more and less than 25 mg
# [5] = system: Normal human dermal fibroblasts; experiment: Collagen production of human fibroblast (Sircol collagen assay, 100 μM, 48 hours); format: cell-based; conditions: cultured 48 hours; for activity at 100 µM: Homo sapiens, Fibroblast, N=4, read-out: Collagen production promoting effect (collagen production amount, % of control group)
# Procedure: (§2) Normal human dermal fibroblasts were regulated with a 10% (v/v) fetal bovine serum (manufactured by Roshe Diagnostics)-containing D-MEM so as to give a cell density of 2.5×10^4 cells/well, then, pre-incubation for 24 hours was performed on a 96-well plate. After the medium was removed, a sample regulated with a 5% (v/v) fetal bovine serum-containing D-MEM to a concentration of 100 μM was added to each well, then, cultured for 48 hours under 37° C. and 5% CO2. After completion of culturing, the amount of free collagen was measured using Sircol collagen assay kit (manufactured by Biocolor). The measurement was carried out at N=4.
# The collagen production amount in measuring a sample at a concentration of 100 μM was compared with the control group, and the results thereof (% value when the control group is 100%) are shown in Tables 44 and 45 based on the following standard.
# [6] = system: Normal human dermal fibroblasts; experiment: Collagen production of human fibroblast 2 (100 μM or 500 μM; 2, 4 and 7 days); format: cell-based; conditions: for Collagen production amount in comparison with the control group (% value when the control group is 100%): Table 46, 100 μM or 500 μM (not stated which), average ± standard error, N=4
# Procedure: as §2
# Free collagen was measured under the same conditions as in Test Example 5 excepting that the concentration of each sample was 100 μM or 500 μM and culturing was carried out for 2 days, 4 days and 7 days. The measurement was carried out at N=4, and the average and standard error, in four test examples, of values of the collagen production amount in comparison with the control group (% value when the control group is 100%) are shown in Tables 46 and 47.
# [7] = storage period 2 weeks, 10 panelists
# [8] = storage period 4 weeks, 10 panelists
Residual rate ([2]; storage period 0),Residual rate ([2]; storage period 2 weeks),Residual rate ([2]; storage period 4 weeks),Residual rate ([3]; storage period 0),Residual rate ([3]; storage period 2 weeks),Residual rate ([3]; storage period 4 weeks),Structure (SMILES),Whitening effect (melanine production suppressing rate) [1],"Coloration ([2]; storage period 0, 10 panelists)","Odor ([2]; storage period 0, 10 panelists)","Coloration [2, 7]","Odor [2, 7]","Coloration [2, 8]","Odor [2, 8]","Coloration ([3]; storage period 0, 10 panelists)","Odor ([3]; storage period 0, 10 panelists)","Coloration [3, 7]","Odor [3, 7]",Collagen production amount in comparison with the control group (% value when the control group is 100%) ([6]; culturing period 2 days),Collagen production amount in comparison with the control group (% value when the control group is 100%) ([6]; culturing period 4 days),Collagen production amount in comparison with the control group (% value when the control group is 100%) ([6]; culturing period 7 days),further results
⊚ (⊚: 90% or more),⊚ (⊚: 90% or more),⊚ (⊚: 90% or more),⊚ (⊚: 90% or more),⊚ (⊚: 90% or more),⊚ (⊚: 90% or more),"O=C1O[C@H]([C@@H](O)CO)C(OCC(O)CO)=C1OCC(O)CO (stereo partly shown) [Example 4, 2,3-di-O-glyceryl ascorbic acid]",+ (20 to 40%:+),◯ (◯: total point of 10 panelists is 25 or more),◯ (◯: total point of 10 panelists is 25 or more),◯ (◯: total point of 10 panelists is 25 or more),◯ (◯: total point of 10 panelists is 25 or more),◯ (◯: total point of 10 panelists is 25 or more),◯ (◯: total point of 10 panelists is 25 or more),◯ (◯: total point of 10 panelists is 25 or more),◯ (◯: total point of 10 panelists is 25 or more),◯ (◯: total point of 10 panelists is 25 or more),◯ (◯: total point of 10 panelists is 25 or more),161 ± 8%,171 ± 7%,209 ± 27%,"Coloration [3, 8]: ◯ (◯: total point of 10 panelists is 25 or more); Odor [3, 8]: ◯ (◯: total point of 10 panelists is 25 or more); moisturizing effect (in words) [4]: excellent moisturizing effect by far than ascorbic acid; activity at 100 µM [5]: 100 to 200%"
⊚ (⊚: 90% or more),⊚ (⊚: 90% or more),⊚ (⊚: 90% or more),⊚ (⊚: 90% or more),⊚ (⊚: 90% or more),⊚ (⊚: 90% or more),"O=C1O[C@H]([C@@H](O)CO)C(O)=C1OCC(O)CO (stereo partly shown) [Example 3, 2-O-glyceryl ascorbic acid]",+ (20 to 40%:+),◯ (◯: total point of 10 panelists is 25 or more),◯ (◯: total point of 10 panelists is 25 or more),◯ (◯: total point of 10 panelists is 25 or more),◯ (◯: total point of 10 panelists is 25 or more),◯ (◯: total point of 10 panelists is 25 or more),◯ (◯: total point of 10 panelists is 25 or more),◯ (◯: total point of 10 panelists is 25 or more),◯ (◯: total point of 10 panelists is 25 or more),◯ (◯: total point of 10 panelists is 25 or more),◯ (◯: total point of 10 panelists is 25 or more),226 ± 10%,193 ± 6%,258 ± 22%,"Coloration [3, 8]: ◯ (◯: total point of 10 panelists is 25 or more); Odor [3, 8]: ◯ (◯: total point of 10 panelists is 25 or more); moisturizing effect (in words) [4]: excellent moisturizing effect by far than ascorbic acid; activity at 100 µM [5]: 100 to 200%"
,,,,,,"O=C1O[C@H]([C@@H](O)CO)C(O)=C1O[C@H]1O[C@H](CO)[C@@H](O)[C@H](O)[C@H]1O [ascorbic acid glucoside, reference compound]",+ (20 to 40%:+),,,,,,,,,,,193 ± 4%,239 ± 2%,179 ± 14%,"Judgement of moisturizing effect (water amount) [4]: ⊚ (⊚: 40 mg or more); Collagen production promoting effect (collagen production amount, % of control group) ([5]; N=4): + (100 to 200%:+); collagen production promoting effect over time (in words) ([6]; 100 μM or 500 μM, culturing 2, 4 and 7 days): lowers over time"
